Source: ChEMBL document CHEMBL1134241, “Spatial requirements of the antagonist binding site of the NK2 receptor” (Bioorg Med Chem Lett, 2001)
pIC50: −log10 of the molar value.

Molecular target: T1, Substance-K receptor (Homo sapiens, UniProt P21452)
T1 sequence (P21452 whole entry): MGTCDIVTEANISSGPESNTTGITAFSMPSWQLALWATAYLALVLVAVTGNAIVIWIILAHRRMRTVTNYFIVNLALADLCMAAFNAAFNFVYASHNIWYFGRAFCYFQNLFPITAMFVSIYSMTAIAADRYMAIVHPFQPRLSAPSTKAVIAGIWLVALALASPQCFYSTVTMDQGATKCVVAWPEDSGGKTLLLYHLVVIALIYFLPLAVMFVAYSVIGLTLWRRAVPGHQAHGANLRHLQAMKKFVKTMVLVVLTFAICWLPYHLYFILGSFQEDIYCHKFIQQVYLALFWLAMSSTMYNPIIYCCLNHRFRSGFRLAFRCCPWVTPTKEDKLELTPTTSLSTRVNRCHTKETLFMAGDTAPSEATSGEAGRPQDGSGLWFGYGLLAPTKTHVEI
Assay: Binding affinity for heterologously expressed human Tachykinin receptor 2 using [3H]-SR- 48968 as radioligand

pIC50 | Compound
4.60 | [O-][S+](C[C@]1(O)CCN2CCc3c([nH]c4ccc(F)cc34)[C@H]2C1)c1ccccc1 (mixture of isomers)
8.22 | CN(C)C(=O)NC1(c2ccccc2)CCN(CC[C@@]2(c3ccc(F)c(F)c3)CN(C(=O)c3ccccc3)CCO2)CC1 (racemic)
6.95 | [O-][S+](c1ccccc1)C(c1ccccc1)C1(O)CCN(CCc2c[nH]c3ccc(F)cc23)CC1 (racemic)
7.84 | CN(C[C@@H](CCN1CCC(NC(=O)c2ccccc2)(c2ccccc2)CC1)c1ccc(Cl)c(Cl)c1)C(=O)c1ccccc1 (racemic)

Compound | pIC50
COC1(C[S+]([O-])c2ccccc2)CCN(CCc2c[nH]c3ccc(F)cc23)CC1 (racemic) | 8.60
[O-][S+](CC1(O)CCN(CCc2c[nH]c3ccc(F)cc23)CC1)c1ccc2ccccc2c1 (racemic) | 7.87
[O-][S+](CC1(O)CCN(CCc2c[nH]c3ccc(F)cc23)CC1)c1ccccc1 (racemic) [4-BENZENESULFINYLMETHYL-1-[2-(5-FLUORO-1H-INDOL-3-YL)-ETHYL]-PIPERIDIN-4-OL (STRUCTURAL MIX)] | 7.66
